These results are taken from patent US20220050096A1, “ANALYTE-SENSITIVE PROBES AND CONTACT LENS FOR DIAGNOSIS OF OCULAR PATHOLOGIES” (University Of Maryland, Baltimore, priority 2020, published 2022).

The nature of data set [1]: Sodium binding affinity (mid-point of response) and sodium-dependent intensity of probes bound to contact lenses. The conditions noted are these: lens not named; read-out: binding constant after addition of linker, hydrophobic moiety and/or binding to the lenses. The protocol:
Fluorescence Spectroscopic Measurements. Fluorescence intensities and intensity decays were measured using a Varian™ Eclipse 4 spectrofluorometer and a FluoTime300 instrument from PicoQuant™ (Berlin, Germany) and analyzed with the EasyTau™ software. The excitation source was a 473 nm laser diode with a repetition rate of 40 MHZ and a pulse width less than 100 ps. In other embodiments, the excitation source for SG-PL was at 495 nm from a Solea™ supercontinuum laser (PicoQuant™, Germany) and a 375 nm laser diode (PDL 375, PicoQuant™), a repetition rate of 40 MHz, and a pulse width less than 100 ps. Some intensity and lifetime measurements for SG-PL (as indicated) were performed using Alba V confocal fluorescence lifetime microscopy, FLIM (ISS, Urbana, Ill.), with excitation source of a 473 nm laser diode with a repetition rate of 40 MHz and a pulse width near 250 ps.
Sodium Binding Affinity. The sodium affinity of the labeled lenses can be described in terms of the dissociation constant. The dissociation reaction for the probe complexed with Na+ can be written as
P—Na^+↔P+Na^+ (equation 4) […]
Binding affinity curves of SG-PL with sodium in Biofinity™ and MyDay™ lenses were produced by plotting the normalized intensities with respect to the added sodium concentrations. The curves were measured by intensities at peak maximum (FIG. 38A) or amplitude-weighted lifetimes (FIG. 38B). […]

A short description of data set [2]: Fluorescence anisotropy decays of SG in buffer and sodium probes in Biofinity lenses. The data set is classed as physicochemical. The procedure:
Three decay time components were required for the intensity decays. Fluorescence anisotropy decays were determined by individual measurements of the polarized intensity decays with corrections for the G-factor. Resolution of multi-exponential decays is not necessary. The average lifetime can be used as a single measurement.
Similar anisotropy decays have been observed for numerous fluorophores bound to large proteins or membranes.
(In fluorescence polarisation assays a small probe gives low polarisation when free and higher when bound to something large.)

The conditions of data set [3]: cited from earlier work; for Kd: read-out: K (mM), binding constant.

Read-outs that look alike come from different tables or passages of the source.

Turning to `COc1cc(N2CCOCCOCCN(c3cc(OC)c(NC(=O)c4ccc(-c5c6cc(Cl)c(=O)cc-6oc6cc([O-])c(Cl)cc56)c(C(=O)[O-])c4)cc3OC)CCOCC2)c(OC)cc1NC(=O)c1ccc(-c2c3cc(Cl)c(=O)cc-3oc3cc([O-])c(Cl)cc23)c(C(=O)[O-])c1.C[N+](C)(C)C.C[N+](C)(C)C.C[N+](C)(C)C.C[N+](C)(C)C` [SG], the Kd is around 100 mM in data set [1], 6 mM in data set [3] (listed as Na Green), around 5 mM in data set [3] (listed as Sodium Green) and 6 to 10 mM in data set [3]. The anisotropy decay entry in data set [2] is recorded as “decayed quickly to zero”. In addition, in data set [3] (cation-bound form (in parentheses)), the “Lifetime (ns), cation-bound form” value was 2.38 ns. The “Lifetime (ns), free form” value in data set [3] (free form) is 3.34 ns.
